From article PMC6631010, “Development of a Simple Assay Method for Adenosine Deaminase via Enzymatic Formation of an Inosine-Tb^3+ Complex” (Sensors (Basel, Switzerland), 2019)
pIC50: −log10 of the molar value.

Target: T1, Adenosine deaminase (ADA) (Bos taurus, UniProt P56658)
T1 sequence (P56658 2-363): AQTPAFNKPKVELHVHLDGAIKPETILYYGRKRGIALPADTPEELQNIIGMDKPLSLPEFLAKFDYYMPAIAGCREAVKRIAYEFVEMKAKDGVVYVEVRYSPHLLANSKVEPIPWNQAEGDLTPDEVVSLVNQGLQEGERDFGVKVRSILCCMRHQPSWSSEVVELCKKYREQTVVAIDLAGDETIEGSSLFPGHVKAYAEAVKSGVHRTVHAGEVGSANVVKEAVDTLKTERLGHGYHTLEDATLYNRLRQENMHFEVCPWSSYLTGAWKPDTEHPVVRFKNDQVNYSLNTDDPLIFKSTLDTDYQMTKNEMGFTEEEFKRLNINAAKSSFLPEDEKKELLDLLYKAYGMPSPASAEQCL
Assay: biochemical

## CCCCCC[C@@H]([C@@H](C)O)n1cnc2c(N)ncnc21 (racemic) [EHNA, erythro-9-(2-hydroxy-3-nonyl)adenine]
  pIC50: 7.19
